These results are taken from US7101876B2, “Substituted benzoxazines as integrin antagonists” (Pharmacia Corporation, priority 2001, dated 2006).

In one experiment the target is T1, human αvβ3 integrin (Homo sapiens, UniProt P05106+P06756).
T1 construct: Human vitronectin receptor (αvβ3) was purified from human placenta; from tissue; host or cells: human placenta
Nature of the experiment: αvβ3-vitronectin binding assay (solid phase). The procedure:
(§1) A solid phase assay for the study of αvβ3-vitronectin binding was set up on the basis of already published methods (WONG et al., Molecular Pharmacology 50: 529–537, 1996; Brooks et al., Cell 85: 683–693, 1996). The human αvβ3 integrin was diluted into coating buffer (CB) containing 150 mM NaCl, 1 mM CaCl2, 1 mM MgCl2, 1 mM MnCl2, 20 mM TRIS, pH 7.4 at a concentration of 1.5 μg/ml. Into 96-well plates, 50 μl of the diluted integrin were added and allowed to bind to the plate walls overnight at 4° C. Next day, the assay plates were emptied and 100 μl of blocking buffer (CB buffer with 3% BSA) were added to each well for 45 min at 37° C. […] Then, the plates were washed as described and 50 μl of ready to use Turbo-TMB substrate for peroxydase were added to each well. After 30 minutes incubation at room temperature, the color development was stopped with 50 μl sulphuric acid 0.38 M and the plates were read at a wavelength of 450 nm with a Packard plate reader. The values obtained were analyzed by four parameters curve fit in the computer program GraphPad Prism, after normalization by a maximum binding control (Bmax) detected in wells where no competitor was added, and a minimum binding control (NSB) detected in wells where no integrin was coated. […]

A further experiment has as its target T2, αIIbβ3 integrin (Homo sapiens, UniProt P05106+P08514).
T2 construct: Human fibrinogen receptor (αIIbβ3) was purified from human platelets; from tissue; host or cells: human platelets
The experiment in a line: αIIbβ3-fibrinogen binding assay (solid phase). The note with it: inhibition of biotinylated fibrinogen (10 nM) binding to coated integrin; read-out: αIIbβ3 (IC50 μmol). Here is the method: as §1, with “of αIIbβ3-fibrinogen” for “of αvβ3-vitronectin”, “up according to” for “up on”, “the method described for αvβ3. αIIbβ3” for “the basis of already published methods (WONG et al., Molecular Pharmacology 50: 529–537, 1996; Brooks et al., Cell 85: 683–693, 1996). The human αvβ3”, “mM Cacl2,” for “mM CaCl2,”, “of 3” for “of 1.5”, “fit with” for “fit in”

The IC50 is the concentration that inhibits the measured activity by half.

T1 sequence (P06756 31-889 limits assumed): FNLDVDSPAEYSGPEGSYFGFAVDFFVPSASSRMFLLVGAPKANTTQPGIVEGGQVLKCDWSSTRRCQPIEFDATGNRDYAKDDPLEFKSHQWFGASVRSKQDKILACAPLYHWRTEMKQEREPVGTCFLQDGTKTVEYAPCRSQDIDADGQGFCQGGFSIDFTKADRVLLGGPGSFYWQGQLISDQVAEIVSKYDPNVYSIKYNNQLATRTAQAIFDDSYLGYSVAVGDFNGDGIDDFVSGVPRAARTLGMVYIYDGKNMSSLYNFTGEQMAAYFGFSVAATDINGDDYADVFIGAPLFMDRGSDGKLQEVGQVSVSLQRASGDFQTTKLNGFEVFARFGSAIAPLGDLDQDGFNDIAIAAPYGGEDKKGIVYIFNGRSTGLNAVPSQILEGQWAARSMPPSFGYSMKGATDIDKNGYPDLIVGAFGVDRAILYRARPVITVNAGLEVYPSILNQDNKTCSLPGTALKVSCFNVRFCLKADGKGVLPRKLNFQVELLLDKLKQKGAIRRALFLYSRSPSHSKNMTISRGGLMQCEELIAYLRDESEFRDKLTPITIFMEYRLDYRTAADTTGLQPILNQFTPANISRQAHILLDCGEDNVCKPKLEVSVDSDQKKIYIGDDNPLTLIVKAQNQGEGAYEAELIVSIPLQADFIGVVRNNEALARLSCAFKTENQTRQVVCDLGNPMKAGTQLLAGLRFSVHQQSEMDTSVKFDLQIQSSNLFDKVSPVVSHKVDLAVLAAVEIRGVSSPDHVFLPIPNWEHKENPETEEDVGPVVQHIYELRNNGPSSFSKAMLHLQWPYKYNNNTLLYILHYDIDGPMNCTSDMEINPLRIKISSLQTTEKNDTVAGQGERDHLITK
T1 sequence (P06756 891-1048 partner limits assumed): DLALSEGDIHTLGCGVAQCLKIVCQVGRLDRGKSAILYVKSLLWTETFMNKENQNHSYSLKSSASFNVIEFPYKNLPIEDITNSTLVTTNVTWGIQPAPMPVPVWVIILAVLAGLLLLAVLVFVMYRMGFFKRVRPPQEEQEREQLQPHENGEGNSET
T1 sequence (P05106 27-788): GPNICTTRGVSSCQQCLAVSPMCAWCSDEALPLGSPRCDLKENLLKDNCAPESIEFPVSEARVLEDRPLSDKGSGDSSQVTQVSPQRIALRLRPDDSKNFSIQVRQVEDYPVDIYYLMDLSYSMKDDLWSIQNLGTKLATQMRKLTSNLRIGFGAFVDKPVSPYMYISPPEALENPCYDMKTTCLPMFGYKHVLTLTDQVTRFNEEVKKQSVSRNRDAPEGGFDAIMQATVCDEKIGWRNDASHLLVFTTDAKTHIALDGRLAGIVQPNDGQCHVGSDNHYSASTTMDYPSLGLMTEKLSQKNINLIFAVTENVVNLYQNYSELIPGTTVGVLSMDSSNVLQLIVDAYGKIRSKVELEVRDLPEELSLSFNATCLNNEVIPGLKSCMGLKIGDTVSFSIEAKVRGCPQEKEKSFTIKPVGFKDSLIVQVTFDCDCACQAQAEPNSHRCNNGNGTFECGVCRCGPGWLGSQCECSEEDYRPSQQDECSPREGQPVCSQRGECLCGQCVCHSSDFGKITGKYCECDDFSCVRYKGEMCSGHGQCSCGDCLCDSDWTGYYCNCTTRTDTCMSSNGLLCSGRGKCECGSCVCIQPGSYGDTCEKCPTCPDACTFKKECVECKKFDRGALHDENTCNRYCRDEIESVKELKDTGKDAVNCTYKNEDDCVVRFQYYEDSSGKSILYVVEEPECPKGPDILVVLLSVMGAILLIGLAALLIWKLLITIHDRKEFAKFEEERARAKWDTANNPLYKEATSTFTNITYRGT
T2 sequence (P08514 32-887 limits assumed): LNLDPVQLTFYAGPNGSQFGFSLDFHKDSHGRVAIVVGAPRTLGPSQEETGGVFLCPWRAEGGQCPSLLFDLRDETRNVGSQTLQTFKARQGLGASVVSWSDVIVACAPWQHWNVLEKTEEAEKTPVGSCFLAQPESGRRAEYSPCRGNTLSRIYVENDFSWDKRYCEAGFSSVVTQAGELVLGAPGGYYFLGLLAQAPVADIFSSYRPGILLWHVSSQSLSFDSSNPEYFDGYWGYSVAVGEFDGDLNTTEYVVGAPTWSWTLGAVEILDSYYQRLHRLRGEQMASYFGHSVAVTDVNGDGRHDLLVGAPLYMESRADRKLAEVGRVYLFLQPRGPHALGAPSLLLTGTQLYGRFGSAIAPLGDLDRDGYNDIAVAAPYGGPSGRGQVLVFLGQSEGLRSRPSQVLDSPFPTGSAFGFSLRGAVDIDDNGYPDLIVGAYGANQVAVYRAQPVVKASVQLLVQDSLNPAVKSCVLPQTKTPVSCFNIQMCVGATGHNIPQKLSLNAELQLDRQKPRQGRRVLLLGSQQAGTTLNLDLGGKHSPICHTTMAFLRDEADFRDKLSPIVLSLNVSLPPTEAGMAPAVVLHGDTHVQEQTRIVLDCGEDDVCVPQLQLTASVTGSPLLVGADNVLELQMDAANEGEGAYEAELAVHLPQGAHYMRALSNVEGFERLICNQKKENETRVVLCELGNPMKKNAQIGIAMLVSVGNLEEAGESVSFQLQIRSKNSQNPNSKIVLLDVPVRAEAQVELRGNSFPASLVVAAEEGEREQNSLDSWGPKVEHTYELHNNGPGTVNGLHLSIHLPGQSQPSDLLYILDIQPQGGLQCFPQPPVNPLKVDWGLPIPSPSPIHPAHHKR
T2 sequence (P08514 891-1039 partner limits assumed): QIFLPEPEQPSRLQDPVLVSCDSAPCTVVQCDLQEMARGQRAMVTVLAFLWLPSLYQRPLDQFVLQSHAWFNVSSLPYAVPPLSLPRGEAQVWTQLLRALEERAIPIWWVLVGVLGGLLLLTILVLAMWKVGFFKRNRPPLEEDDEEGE
T2 sequence (P05106 27-788): as the sequence (P05106 27-788) above

`O=C(O)CC(Nc1ccc2c(c1)OCC(=O)N2CCCNc1ccccn1)c1ccccc1` (stereo not drawn) [3-{4-[3-(N-(2-pyridinyl)amino)propyl]-3-oxo-3,4-dihydro-2H-1,4-benzoxazin-7-yl)amino}-3-phenylpropanoic acid]: the half-inhibitory concentration (IC50) at human αvβ3 integrin (inhibition of biotinylated vitronectin (5 nM) binding to coated integrin, read-out: αvβ3 (IC50 μmol)) was found to be 0.011 ± 0.004 µM; on αIIbβ3 integrin it was 18 µM. For the same compound, the “ratio between αIIbβ3 and αvβ3 inhibiting activity” value on human αvβ3 integrin (selectivity, αIIbβ3 IC50 / αvβ3 IC50) was “about 1,000”.
